Measurements reported in US5801270A, “Amine derivative and detergent composition containing the same” (Kao Corporation, priority 1993, dated 1998).

Legend:
[1] = Irritativeness and feeling of the compound on the user's skin and hair; conditions: in words
[2] = Cytotoxic effect on SIRC cells (Giemsa stain, 48 hours); format: cell-based, rabbit; conditions: rabbit, 48 hours culture, 655 nm, read-out: IC50
Experimental: (§1) The cytotoxic effect of the compounds according to the present invention was tested in accordance with the following method.
(§2) Four days prior to exposure to a substance to be tested, SIRC cells (established cell line of fibroblasts in the epithelial parenchymal layer of a rabbit eye) were disseminated on a 96-well plate in a concentration of 3×10^3 cells/well to culture them under conditions of 37° C. and 5% CO2.
(§3) The test substance was dissolved in physiological saline to give a concentration of 1 wt. % or 10 wt. %. This solution was diluted with a culture medium. After the thus-obtained test solution was added to the culture solution to conduct culture for 48 hours, the culture solution was washed twice with PBS (pH 7.4) and fixed in methanol to stain with a Giemsa stain. After washing and drying, a mixture of 1N HCl/ethanol (1/9) was added to extract the stained solution, followed by measurement by means of a microplate reader (655 nm). The concentration at which […] was expressed as IC50 (ppm).

SIRC cells = assay: as above; format: cell-based, rabbit; conditions: 48 hours culture, 655 nm
Experimental: as §1, §2, §3

| Compound | irritativeness [1] | CC50 at 48 h [2] [µg/mL] | IC50 (SIRC cells) [ppm] |
| --- | --- | --- | --- |
| CCCCCCCCN(CC(O)CN(CCCCCCCC)C(=O)CCC(=O)[O-])CC(O)CN(CCCCCCCC)C(=O)CCC(=O)[O-].[Na+].[Na+] (stereo not drawn) | low | – | – |
| CCCCCCCCN(CC(O)CN(CCCCCCCC)C(=O)CC(C(=O)O)S(=O)(=O)[O-])CC(O)CN(CCCCCCCC)C(=O)CC(C(=O)O)S(=O)(=O)[O-].[Na+].[Na+] (stereo not drawn) | low | – | – |
| 6-butyl-4,8-dihydroxy-2,10-dioctyl-2,6,10-triaza-1,1,11,11-undecanetetracarboxylic acid [Example 12] | low | – | – |
| CCCCCCCCN(CC(=O)O)CC(O)CN(CCCC)CC(O)CN(CCCCCCCC)CC(=O)O (stereo not drawn) [Example 8, 6-butyl-4,8-dihydroxy-2,10-dioctyl-2,6,10-triaza-1,11-undecanedicarboxylicacid] | low | – | – |
| CCCCCCCCCCCCN(CCOS(=O)(=O)O)CC(CN(CCCCCCCCCCCC)CC(CN(CCCCCCCCCCCC)CCOS(=O)(=O)O)OS(=O)(=O)O)OS(=O)(=O)O (stereo not drawn) [Example 10, sodium 3,7,11-tridodecyl-3,7,11-triaza-1,5,9,13-tridecanetetrasulfate] | low | 790 | – |
| CCCCCCCCCCCCN(CCOS(=O)(=O)O)CC(CN(CCCCCCCCCCCC)CC(CN(CCCCCCCCCCCC)CC(CN(CCCCCCCCCCCC)CC(CN(CCCCCCCCCCCC)CCOS(=O)(=O)O)OS(=O)(=O)O)OS(=O)(=O)O)OS(=O)(=O)O)OS(=O)(=O)O (stereo not drawn) [Example 11, sodium 3,7,11,15,19-pentadodecyl-3,7,11,15,19-pentaaza-1,5,9,13,17,21-heneicosanehexasulfate] | low | – | > 1000 |
| CCCCCCCCCCCCOS(=O)(=O)[O-].[Na+] [Sodium dodecyl sulfate, reference compound] | – | 82 | – |
